Measured values from patent US12617783B2, “Heterocyclic GLP-1R agonists” (BIOMEA FUSION, INC., priority 2024, dated 2026).
“Also recorded” adds a separate entry of the source. Like-named read-outs stand apart in the source and are kept apart here.

Assays:
[1] = tested on: Type 2 diabetic donor islets; assay: Glucose-stimulated insulin secretion (GSIS) in Type 2 diabetic donor islets cultured ex vivo; assay type: cell-based; conditions: islets cultured ex vivo for 8 days (FIG. 1A) or 12 days (FIG. 1B); compared with orforglipron or DMSO
Method: Islets from a Type 2 diabetic donor were cultured ex vivo for 8 days (FIG. 1A) or 12 days (FIG. 1B) were assayed for GSIS in the presence of compound 36 (cpd 36), orforglipron or DMSO. Basal insulin secretion, stimulated insulin secretion and secretion index were measured.

[2] = tested on: islets from a non-diabetic donor; assay: Glucose-stimulated insulin secretion (GSIS) in non-diabetic donor islets cultured ex vivo; assay type: cell-based; conditions: compared with orforglipron or DMSO
Method: Donor islets cultured ex vivo were assayed for GSIS in the presence of compound 36 (cpd 36), orforglipron or DMSO. Basal insulin secretion, stimulated insulin secretion and secretion index were measured.
Donor islets cultured ex vivo were assayed for GSIS in the presence of compound 214, orforglipron or DMSO. Basal insulin secretion, stimulated insulin secretion and secretion index were measured.

human GLP-1R = target: T1, human GLP-1R (Homo sapiens, UniProt P43220); assay: GLP-1R cAMP assay (Example B1a, HTRF, 30 min at room temperature); assay type: cell-based; conditions: for EC50 Ratio: potency ratio of stereoisomer pair (less potent / more potent isomer)
T1 construct: host or cells: HEK293
Summary of the method: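 Competitive HTRF read-out of cAMP after 30 min room-temperature stimulation, BETP absent, of human GLP-1R-HEK293 cells (1,000/well) in HEPES buffer with 500 μM IBMX and 0.1% BSA. Activation normalised to GLP-1(7-37) positive control. EC50 from 4-parameter non-linear regression.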

[3] = tested on: ex-vivo cultured islets from a T2D donor; assay: Glucose-Stimulated Insulin Secretion (GSIS) assay, islets from a T2D donor; assay type: cell-based
Method: (§1) Glucose-Stimulated Insulin Secretion (GSIS) Assay
(§2) Purified islets from healthy or Type 2 diabetic donors (Prodo Laboratory, Inc., Aliso Viejo, CA) were cultured in PIM(S) media (Prodo) with 8 mM or 11 mM glucose in a 37° C. water-jacketed incubator with 5% CO2. The GSIS assay followed published procedure (Zhu et al. 2015; Ho et al. 2023). Briefly, islets were conditioned in Krebs-Ringer bicarbonate buffer (KRB, 111 mM NaCl, 4.8 mM KCl, 25 mM NaHCO3, 2.3 mM CaCl2, 1.2 mM MgSO4, 0.15 mM Na2HPO4, 1.2 mM KH2PO4, 10 mM HEPES, 0.2% BSA) containing 2.8 mM glucose for 2 hours with 0.05% DMSO, compound 36 or orforglipron. Size-matched islets were used for each test condition. Islets were washed with KRB once and incubated in fresh KRB containing 2.8 mM glucose with 0.05% DMSO or corresponding compound for one hour to measure the basal insulin secretion in 2.8 mM glucose. Glucose concentration was increased to 11 mM and islets stimulated for one hour in the presence of 0.05% DMSO or corresponding compound to measure stimulated insulin secretion. Supernatants were harvested and insulin secreted under basal and glucose stimulated conditions were quantified using an ELISA kit (ALPCO, Salem, NH). Islets were lysed and genomic DNA was extracted using silicon spin column (Qiagen, Venlo, Netherlands). Insulin secretion was normalized to total genomic DNA.
Insulin secretion index is the ratio of stimulated insulin secretion at 11 mM glucose/basal insulin secretion at 2.8 mM glucose. […] (Ho, K. H., A. Jayathilake, Y. Mahircan, A. Nour, A. B. Osipovich, M. A. Magnuson, G. Gu, and I. Kaverina. 2023. CAMSAP2 localizes to the Golgi in islet beta-cells and facilitates Golgi-ER trafficking, iScience, 26:105938.Zhu X., R. Hu, M. Brissova, R. W. Stein, A. C. Powers, G. Gu, and I. Kaverina. 2015. Microtubules Negatively Regulate Insulin Secretion in Pancreatic beta Cells, Dev Cell, 34:656-68).

[4] = tested on: ex-vivo cultured islets from a healthy donor; assay: Glucose-Stimulated Insulin Secretion (GSIS) assay, islets from a healthy donor; assay type: cell-based; conditions: compared to DMSO, FIG. 2
Method: as §1
as §2, with “DNA. […]” for “DNA.”

[5] = Pharmacokinetic analysis in male SD rats; assay type: in vivo; conditions: for Oral F: 5.0 mg/kg po vs 1.0 mg/kg iv; for AUC(0-inf) / clearance / half-life / Vd / Cmax / Tmax: Sprague-Dawley (SD), rat, plasma; for Vd: read-out: Vdss; for exposure compared with Orforglipron: same doses (iv 1 mg/kg and po 5 mg/kg)
Method: The rats have free access to food and water. Blood samples were collected pre-dose and 0.083, 0.25, 0.5, 1, 2, 4, 8, 24 hours post dose for i.v. administration group. Blood samples were also collected pre-dose and 0.25, 0.5, 1, 2, 4, 8, and 24 hours after administration in orally dosing group.

[6] = cynomolgus monkey, in vivo; for Oral F: male
Method: (§3) Pharmacokinetic Analysis of the Compound 36, Compound 121, Compound 214, and Orforglipron in Cynomolgus Monkeys
(§4) Non naïve male cynomolgus monkeys (n=3 monkeys/group) were fasted overnight and fed 4 hours post dose. Compounds of the present application were formulated in 10% polyethylene glycol 400/10% propylene glycol/80% glycine buffer (100 mM glycine, 64 mM NaOH, pH 10).
(§5) The compound was administered by i.v. infusion for 30 minutes at 0.12 mg/kg (dose volume 1 mL/kg at a speed of 2 mL/kg/h) or orally doses of 0.36 mg/kg. Blood samples were collected pre-dose and 0.25, 0.5 (just before the infusion is stopped), 0.75, 1, 1.5, 2.5, 4, 8, 16, 24 hr post dose for i.v. administration group. Blood samples were also collected pre-dose, 0.5, 1, 2, 3, 4, 8, 16 and 24 hr after administration in orally dosing group.

in vivo = conditions: male, cynomolgus monkey
Method: as §3, §4, §5

[7] = Table 1d, stereoisomer pairs, read-out: EC50
[8] = cAMP accumulation in HEK293 expressing human GLP-1R, no BETP, 30 min room temperature (Method B1a, compounds ID 1-609), Table 1, read-out: EC50
[9] = text to Table 1d, bridge atoms configured into the plane or away from the reader, read-out: potency (EC50)

T1 sequence (P43220 24-463): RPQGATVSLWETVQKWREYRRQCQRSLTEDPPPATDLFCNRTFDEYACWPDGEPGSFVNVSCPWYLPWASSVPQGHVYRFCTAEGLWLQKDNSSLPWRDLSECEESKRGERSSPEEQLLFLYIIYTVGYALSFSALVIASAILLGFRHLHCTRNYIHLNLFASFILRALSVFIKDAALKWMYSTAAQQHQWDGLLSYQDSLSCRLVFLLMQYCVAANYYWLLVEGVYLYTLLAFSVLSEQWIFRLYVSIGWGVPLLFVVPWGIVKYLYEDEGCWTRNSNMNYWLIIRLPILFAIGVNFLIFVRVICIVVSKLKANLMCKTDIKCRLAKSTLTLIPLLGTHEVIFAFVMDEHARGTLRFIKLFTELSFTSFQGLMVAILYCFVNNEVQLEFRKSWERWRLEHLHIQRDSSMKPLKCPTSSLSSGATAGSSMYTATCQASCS

## Cc1cc(-n2nc3c(c2-n2ccn(-c4ccc5c(cnn5C)c4F)c2=O)[C@@H]2CC[C@H](C3)N2C(=O)c2cc3cc([C@H]4CCOC(C)(C)C4)ccc3n2[C@@]2(c3noc(=O)[nH]3)C[C@@H]2C)cc(C)c1F [Compound 36, 3-((1S,2S)-1-(5-((S)-2,2-dimethyltetrahydro-2H-pyran-4-yl)-2-((4S,7R)-3-(3-(4-fluoro-1-methyl-1H-indazol-5-yl)-2-oxo-2,3-dihydro-1H-imidazol-1-yl)-2-(4-fluoro-3,5-dimethylphenyl)-2,4,5,6,7,8-hexahydro-4,7-epiminocyclohepta [c]pyrazole-9-carbonyl)-1H-indol-1-yl)-2-methylcyclopropyl)-1,2,4-oxadiazol-5(4H)-one]
[1]
  responsiveness of Type 2 diabetic donor islets to glucose stimulation (GSIS): increases the responsiveness of Type 2 diabetic donor islets to glucose stimulation
[2]
  glucose-stimulated insulin secretion in islets from a non-diabetic donor: increases glucose-stimulated insulin secretion
Human GLP-1R; Table 1d
  EC50 Ratio: >94
Human GLP-1R; [7]
  EC50: 0.109 µM
Human GLP-1R; [8]
  EC50: 0.109 µM
Human GLP-1R; [9]
  EC50: < 1 µM
[3]; 2.8 mM glucose, FIG. 1A
  basal insulin secretion: decreased
[3]; 11 mM glucose, FIG. 1A
  stimulated insulin: improved
[3]; FIG. 1
  glucose-stimulated insulin secretion (GSIS): potentiated GSIS; also recorded: overall relatively better than orforglipron
[3]; ratio of stimulated insulin secretion at 11 mM glucose/basal insulin secretion at 2.8 mM glucose, FIG. 1B
  insulin secretion index: improved
[4]
  insulin secretion upon glucose stimulation: potentiated islets to secrete more insulin upon glucose stimulation compared to DMSO
[5]
  Oral F: 29.6%
  exposure compared with Orforglipron: significant higher exposure
[5]; 1.0 mg/kg iv
  AUC(0-inf): 5050 ng·h/mL
  clearance: 3.33 mL/min/kg
  half-life: 5.04 h
  Vd: 1.09 L/kg
[5]; 5.0 mg/kg po
  AUC(0-inf): 7480 ng·h/mL
  Cmax: 610 ng/mL
  Tmax: 3.33 h
  half-life: 4.93 h
[6]
  oral bioavailability compared with Orforglipron: better oral bioavailability
  Oral F: 50.2%
In vivo; iv, 0.12 mg/kg
  AUC(0-inf): 512 ng·h/mL
  Vd: 1.13 L/kg
  clearance: 3.98 mL/min/kg
  half-life: 4.55 h
In vivo; po, 0.36 mg/kg
  AUC(0-inf): 771 ng·h/mL
  Cmax: 121 ng/mL
  Tmax: 2 h
  half-life: 4.22 h

## Cc1cc(-n2nc3c(c2-n2ccn(-c4ccc5c(cnn5C)c4F)c2=O)[C@@H]2COC[C@H](C3)N2C(=O)c2cc3cc([C@H]4CCOC(C)(C)C4)ccc3n2[C@@]2(c3noc(=O)[nH]3)C[C@@H]2C)cc(C)c1F [Compound 121, 3-((1S,2S)-1-(5-((S)-2,2-dimethyltetrahydro-2H-pyran-4-yl)-2-((4R,8S)-3-(3-(4-fluoro-1-methyl-1H-indazol-5-yl)-2-oxo-2,3-dihydro-1H-imidazol-1-yl)-2-(4-fluoro-3,5-dimethylphenyl)-2,4,5,7,8,9-hexahydro-4,8-epiminooxocino [5,4-c]pyrazole-10-carbonyl)-1H-indol-1-yl)-2-methylcyclopropyl)-1,2,4-oxadiazol-5 (4H)-one]
Human GLP-1R; Table 1d
  EC50 Ratio: >122
Human GLP-1R; [7]
  EC50: 0.082 µM
Human GLP-1R; [8]
  EC50: 0.082 µM
Human GLP-1R; [9]
  EC50: < 1 µM
[5]
  Oral F: 54.7%
  exposure compared with Orforglipron: significant higher exposure
[5]; 1.0 mg/kg iv
  AUC(0-inf): 3330 ng·h/mL
  clearance: 5.02 mL/min/kg
  half-life: 3.14 h
  Vd: 1.24 L/kg
[5]; 5.0 mg/kg po
  AUC(0-inf): 9120 ng·h/mL
  Cmax: 923 ng/mL
  Tmax: 3.33 h
  half-life: 3.47 h
[6]
  Oral F: 22.2%
In vivo; iv, 0.12 mg/kg
  AUC(0-inf): 182 ng·h/mL
  Vd: 1.66 L/kg
  clearance: 11.4 mL/min/kg
  half-life: 2.26 h
In vivo; po, 0.36 mg/kg
  AUC(0-inf): 121 ng·h/mL
  Cmax: 28 ng/mL
  Tmax: 2 h
  half-life: 1.94 h

## Cc1cc(-n2nc3c(c2-n2ccn(-c4ccc5c(cnn5C)c4F)c2=O)[C@@H]2CC[C@H](C3)N2C(=O)c2cc3cc([C@H]4CCOC5(CC5)C4)ccc3n2[C@@]2(c3noc(=O)[nH]3)C[C@@H]2C)cc(C)c1F [Compound 214, 3-((1S,2S)-1-(2-((4S,7R)-3-(3-(4-fluoro-1-methyl-1H-indazol-5-yl)-2-oxo-2,3-dihydro-1H-imidazol-1-yl)-2-(4-fluoro-3,5-dimethylphenyl)-2,4,5,6,7,8-hexahydro-4,7-epiminocyclohepta [c]pyrazole-9-carbonyl)-5-((S)-4-oxaspiro[2.5]octan-7-yl)-1H-indol-1-yl)-2-methylcyclopropyl)-1,2,4-oxadiazol-5 (4H)-one]
[2]
  glucose-stimulated insulin secretion in islets from a non-diabetic donor: increases in glucose-stimulated insulin secretion
Human GLP-1R; Table 1d
  EC50 Ratio: >13
Human GLP-1R; [7]
  EC50: 0.0523 µM
Human GLP-1R; [8]
  EC50: 0.0523 µM
Human GLP-1R; [9]
  EC50: < 1 µM
[5]
  Oral F: 32.6%
  exposure compared with Orforglipron: significant higher exposure
[5]; 1.0 mg/kg iv
  AUC(0-inf): 4640 ng·h/mL
  clearance: 3.68 mL/min/kg
  half-life: 4.83 h
  Vd: 1.08 L/kg
[5]; 5.0 mg/kg po
  AUC(0-inf): 7510 ng·h/mL
  Cmax: 640 ng/mL
  Tmax: 2.67 h
  half-life: 5.14 h
[6]
  Oral F: 54.0%
In vivo; iv, 0.12 mg/kg
  AUC(0-inf): 619 ng·h/mL
  Vd: 0.77 L/kg
  clearance: 3.4 mL/min/kg
  half-life: 3.66 h
In vivo; po, 0.36 mg/kg
  AUC(0-inf): 1000 ng·h/mL
  Cmax: 149 ng/mL
  Tmax: 2 h
  half-life: 3.56 h
